In one test the test system is EGFR Tyr845. Description: CRF-induced EGFR phosphorylation at Tyr845 in COS-7 cells expressing HA-CRF1R. Conditions: 100 nM wortmannin, 30 min pretreatment; 100 nM CRF, 5 min. The format is cell-based. As for the experimental part:
COS-7 cells (from the American Type Culture Collection) were cultured at 37°C in a humidified atmosphere of 95% air, 5% CO2, in DMEM supplemented with 10% FBS, 100 μg/ml streptomycin, and 100 units/ml penicillin (COS-7 growth medium). Transient transfections were performed using LipofectAMINE (Life Technologies: Gaithersburg, MD) as described previously ([27]). Cells were seeded at 8 × 10^5 cells/10-cm dish in COS-7 medium and cultured for 3 days before transfection. COS-7 cells were transfected in 5 ml/dish OptiMEM containing 10 μg/ml LipofectAMINE with empty vector, pcDNA3 encoding the HA-CRF1R or the HA-CRF1R-Δ386 mutant. […]
(§1) The protocols for measuring total and phosphorylated ERK1/2, c-Src, PYK2, Akt, and EGFR have been previously published ([28], [29]). […] The labeled bands were quantified using the Quantity One 4.6.3 software program (Bio-Rad).
Figure 6 CRF mediates EGFR phosphorylation at Tyr^845 and activation of PYK2. […] Total cell lysates were separated by SDS-PAGE and analyzed by immunoblotting with anti-p-EGFR Tyr^845 (A,B) or anti-p-PYK2 Tyr^402 (E), as described in Materials and Methods. EGFR and ERK1/2 phosphorylation were quantitated by densitometry, and mean values were plotted from three to five independent experiments. […] Src and EGFR were quantitated by densitometry, and mean values were plotted from three independent experiments. […]

The test system of another test is Src. Put plainly: CRF-induced Src phosphorylation at Tyr416 in COS-7 cells expressing HA-CRF1R. It counts as cell-based. Conditions: 100 nM wortmannin, 30 min pretreatment; 100 nM CRF, 5 min. As to the method: COS-7 cells (from the American Type Culture Collection) were cultured at 37°C in a humidified atmosphere of 95% air, 5% CO2, in DMEM supplemented with 10% FBS, 100 μg/ml streptomycin, and 100 units/ml penicillin (COS-7 growth medium). Transient transfections were performed using LipofectAMINE (Life Technologies: Gaithersburg, MD) as described previously ([27]). Cells were seeded at 8 × 10^5 cells/10-cm dish in COS-7 medium and cultured for 3 days before transfection. COS-7 cells were transfected in 5 ml/dish OptiMEM containing 10 μg/ml LipofectAMINE with empty vector, pcDNA3 encoding the HA-CRF1R or the HA-CRF1R-Δ386 mutant. […] After replacing the transfection medium with fresh growth medium, transfected COS-7 cells were cultured for 1 day. […]
as §1
Figure 5 Role of Src tyrosine kinase in CRF-stimulated ERK1/2 phosphorylation. […] Total cell lysates were separated by SDS-PAGE and analyzed by immunoblotting with anti-p-Src Tyr^416 (A,B) or anti-p-ERK1/2 Thr^202/Tyr^204 (C–E), as described in Materials and Methods. Src, PYK2, and ERK1/2 phosphorylation were quantitated by densitometry, and mean values were plotted from three to five independent experiments. […]

Consider `COC[C@H]1OC(=O)c2coc3c2[C@@]1(C)C1=C(C3=O)[C@@H]2CCC(=O)[C@@]2(C)C[C@H]1OC(C)=O` [wortmannin], for which, in the test with EGFR Tyr845, the “effect on CRF-induced EGFR Tyr845 phosphorylation” value was “had no effect on CRF-induced phosphorylation of EGFR at Tyr^845”. The “effect on CRF-induced Src Tyr416 phosphorylation” value in the test on Src was “did not alter CRF-induced phosphorylation of Src at Tyr^416”.
